Experimental findings from ChEMBL document CHEMBL1153670 (Bioorg Med Chem Lett, 1995) are described below.

In data set [1] the test system is HCT-116. Description: cells. The note with it: Homo sapiens.
The test system of data set [2] is HCT-116. Description: Potency relative to paclitaxel in a tubulin polymerization assay in HCT116 cell line. The format is functional, Homo sapiens.
Data set [3] concerns HCT-116. Kind of data set: In vitro cytotoxicity was determined by inhibition against HCT116 cell line proliferation after 72 hours of incubation. The format is cell-based. The note with it: Homo sapiens, HCT-116, 72 h.
Data set [4] deals with M109. Kind of data set: In vivo cytotoxicity of intraperitoneally administered compound was determined against ip implanted murine M-109 lung carcinoma; NA means not active. The data set is classed as organism-based. The note with it: mouse.

Turning to `CCCCC(=O)O[C@@]12CO[C@@H]1C[C@H](O)[C@@]1(C)C(=O)[C@H](OC(C)=O)C3=C(C)[C@@H](OC(=O)[C@H](O)C(NC(=O)c4ccccc4)c4ccccc4)C[C@@](O)([C@@H](OC(=O)c4ccccc4)C12)C3(C)C` (some centres undefined), the IC50 (usually the concentration needed to halve the response being measured) in data set [1] came to 0.5 nM; in data set [3], 2 nM. Also, the Tubulin polymerization ratio in data set [2] was determined as 1.04.
`CC(=O)O[C@H]1C(=O)[C@@]2(C)C([C@H](OC(=O)c3ccccc3)[C@]3(O)C[C@H](OC(=O)[C@H](O)C(NC(=O)c4ccccc4)c4ccccc4)C(C)=C1C3(C)C)[C@]1(OC(=O)N3CC3)CO[C@@H]1C[C@@H]2O` (some centres undefined): the half-inhibitory concentration (IC50) in data set [1] is 6.5 nM; in data set [3], 15.6 nM.
As for `CC(=O)O[C@H]1C(=O)[C@@]2(C)C([C@H](OC(=O)c3ccccc3)[C@]3(O)C[C@H](OC(=O)[C@H](O)C(NC(=O)c4ccccc4)c4ccccc4)C(C)=C1C3(C)C)[C@]1(OC(=O)C3CCC3)CO[C@@H]1C[C@@H]2O` (some centres undefined), the half-inhibitory concentration (IC50) in data set [1] turned out to be 0.38 nM; in data set [3], 1.5 nM. For the same compound, the Tubulin polymerization ratio in data set [2] is recorded as 0.44. Besides, the T/C result in data set [4] is on record as “Not Active”.
Consider `CC(=O)O[C@H]1C(=O)[C@@]2(C)C([C@H](OC(=O)c3ccccc3)[C@]3(O)C[C@H](OC(=O)[C@H](O)C(NC(=O)c4ccccc4)c4ccccc4)C(C)=C1C3(C)C)[C@]1(OC(=O)C3CCCC3)CO[C@@H]1C[C@@H]2O` (some centres undefined), for which the IC50 in data set [1] turned out to be 0.5 nM; in data set [3], 2 nM. Further, the Tubulin polymerization ratio in data set [2] was found to be 1.54.
`CC(=O)O[C@H]1C(=O)[C@@]2(C)C([C@H](OC(=O)c3ccccc3)[C@]3(O)C[C@H](OC(=O)[C@H](O)C(NC(=O)c4ccccc4)c4ccccc4)C(C)=C1C3(C)C)[C@]1(O)CO[C@@H]1C[C@@H]2O` (some centres undefined): the half-maximal inhibitory concentration (IC50) is > 200 nM in data set [1] and > 1000 nM in data set [3]. Moreover, the Tubulin polymerization ratio in data set [2] is given as 200.
In the same order, the values of `CC(=O)O[C@H]1C(=O)[C@@]2(C)C([C@H](OC(=O)c3ccccc3)[C@]3(O)C[C@H](OC(=O)[C@H](O)C(NC(=O)c4ccccc4)c4ccccc4)C(C)=C1C3(C)C)[C@]1(OC(=O)n3ccnc3)CO[C@@H]1C[C@@H]2O` (some centres undefined) are 251 nM, 803 nM and 263.
`CC(=O)O[C@H]1C(=O)[C@@]2(C)C([C@H](OC(=O)c3ccccc3)[C@]3(O)C[C@H](OC(=O)[C@H](O)C(NC(=O)c4ccccc4)c4ccccc4)C(C)=C1C3(C)C)[C@]1(OC(=O)NC3CCC3)CO[C@@H]1C[C@@H]2O` (some centres undefined): the IC50 in data set [1] stood at 2.3 nM; in data set [3], 9.2 nM. The Tubulin polymerization ratio in data set [2] amounted to 0.76.
Take `CCC(=O)O[C@@]12CO[C@@H]1C[C@H](O)[C@@]1(C)C(=O)[C@H](OC(C)=O)C3=C(C)[C@@H](OC(=O)[C@H](O)C(NC(=O)c4ccccc4)c4ccccc4)C[C@@](O)([C@@H](OC(=O)c4ccccc4)C12)C3(C)C` (some centres undefined): the values for the concentration for half-maximal inhibition (IC50) in data set [1] and in data set [3] were 0.5 nM and 2 nM, respectively. The Tubulin polymerization ratio in data set [2] is reported as 1.5.
On to `COC(=O)O[C@@]12CO[C@@H]1C[C@H](O)[C@@]1(C)C(=O)[C@H](OC(C)=O)C3=C(C)[C@@H](OC(=O)[C@H](O)C(NC(=O)c4ccccc4)c4ccco4)C[C@@](O)([C@@H](OC(=O)c4ccccc4)C12)C3(C)C` (some centres undefined), for which the IC50 in data set [1] turned out to be 0.57 nM; in data set [3] it was 2.3 nM. For the same compound, in data set [2], the Tubulin polymerization ratio stood at 0.33. The T/C result in data set [4] was “Not Active”.
Regarding `CC(=O)O[C@H]1C(=O)[C@@]2(C)C([C@H](OC(=O)c3ccccc3)[C@]3(O)C[C@H](OC(=O)[C@H](O)C(NC(=O)c4ccccc4)c4ccccc4)C(C)=C1C3(C)C)[C@]1(OC(=O)c3ccc(F)cc3)CO[C@@H]1C[C@@H]2O` (some centres undefined), the IC50 is 198 nM in data set [1] and 790 nM in data set [3]. The Tubulin polymerization ratio in data set [2] was determined as 61.
Take `C=CC(=O)O[C@@]12CO[C@@H]1C[C@H](O)[C@@]1(C)C(=O)[C@H](OC(C)=O)C3=C(C)[C@@H](OC(=O)[C@H](O)C(NC(=O)c4ccccc4)c4ccccc4)C[C@@](O)([C@@H](OC(=O)c4ccccc4)C12)C3(C)C` (some centres undefined): the 50% inhibitory concentration (IC50) came out at 1.5 nM in data set [1] and 6 nM in data set [3]. In data set [2], the Tubulin polymerization ratio was 0.42.
With `CC(=O)O[C@H]1C(=O)[C@@]2(C)C([C@H](OC(=O)c3ccccc3)[C@]3(O)C[C@H](OC(=O)[C@H](O)C(NC(=O)c4ccccc4)c4ccccc4)C(C)=C1C3(C)C)[C@]1(OC(=O)CF)CO[C@@H]1C[C@@H]2O` (some centres undefined), the IC50 in data set [1] was 1.75 nM; in data set [3] it was 7 nM. Moreover, the Tubulin polymerization ratio in data set [2] is 1.2.
On to `CCCOC(=O)O[C@@]12CO[C@@H]1C[C@H](O)[C@@]1(C)C(=O)[C@H](OC(C)=O)C3=C(C)[C@@H](OC(=O)[C@H](O)C(NC(=O)c4ccccc4)c4ccccc4)C[C@@](O)([C@@H](OC(=O)c4ccccc4)C12)C3(C)C` (some centres undefined), for which the IC50 in data set [1] turned out to be 0.67 nM; in data set [3], 2.6 nM. For the same compound, the Tubulin polymerization ratio in data set [2] is reported as 0.76.
Regarding `C/C=C/C(=O)O[C@@]12CO[C@@H]1C[C@H](O)[C@@]1(C)C(=O)[C@H](OC(C)=O)C3=C(C)[C@@H](OC(=O)[C@H](O)C(NC(=O)c4ccccc4)c4ccccc4)C[C@@](O)([C@@H](OC(=O)c4ccccc4)C12)C3(C)C` (some centres undefined), the IC50 in data set [1] turned out to be 0.58 nM; in data set [3] it was 2.3 nM. Besides, in data set [2], the Tubulin polymerization ratio was found to be 0.7.
As for `CCCCCC(=O)O[C@@]12CO[C@@H]1C[C@H](O)[C@@]1(C)C(=O)[C@H](OC(C)=O)C3=C(C)[C@@H](OC(=O)[C@H](O)C(NC(=O)c4ccccc4)c4ccccc4)C[C@@](O)([C@@H](OC(=O)c4ccccc4)C12)C3(C)C` (some centres undefined), the IC50 in data set [1] is 1.5 nM; in data set [3] it was 6 nM. Also, the Tubulin polymerization ratio in data set [2] is listed as 3.4.
For the compound `CCCOC(=O)O[C@@]12CO[C@@H]1C[C@H](O)[C@@]1(C)C(=O)[C@H](OC(C)=O)C3=C(C)[C@@H](OC(=O)[C@H](O)C(NC(=O)OC(C)(C)C)c4ccco4)C[C@@](O)([C@@H](OC(=O)c4ccccc4)C12)C3(C)C` (some centres undefined), the values for the half-inhibitory concentration (IC50) in data set [1] and in data set [3] were 0.6 nM and 3 nM, respectively. Besides, the Tubulin polymerization ratio in data set [2] is recorded as 0.71. The T/C result in data set [4] was “Not Active”.
`CC(=O)O[C@H]1C(=O)[C@@]2(C)C([C@H](OC(=O)c3ccccc3)[C@]3(O)C[C@H](OC(=O)[C@H](O)C(NC(=O)c4ccccc4)c4ccccc4)C(C)=C1C3(C)C)[C@]1(OC(=O)C(C)C)CO[C@@H]1C[C@@H]2O` (some centres undefined): the half-maximal inhibitory concentration (IC50) in data set [1] came out at 1.25 nM; in data set [3], 5 nM. Besides, the Tubulin polymerization ratio in data set [2] amounted to 0.46.
On to `CC(=O)O[C@H]1C(=O)[C@@]2(C)C([C@H](OC(=O)c3ccccc3)[C@]3(O)C[C@H](OC(=O)[C@H](O)C(NC(=O)c4ccccc4)c4ccccc4)C(C)=C1C3(C)C)[C@]1(OC(=O)C(Cl)(Cl)Cl)CO[C@@H]1C[C@@H]2O` (some centres undefined), for which the figures for the half-inhibitory concentration (IC50) in data set [1] and in data set [3] were 1.1 nM and 4 nM, respectively. In addition, the Tubulin polymerization ratio in data set [2] is given as 0.68.
In the same order, the values of `CC(=O)O[C@H]1C(=O)[C@@]2(C)C([C@H](OC(=O)c3ccccc3)[C@]3(O)C[C@H](OC(=O)[C@H](O)C(NC(=O)c4ccccc4)c4ccccc4)C(C)=C1C3(C)C)[C@]1(OC(=O)c3ccccc3)CO[C@@H]1C[C@@H]2O` (some centres undefined) are 103 nM, 410 nM and >60.
